Assay results: ChEMBL document CHEMBL1811813, “Synthesis and cytotoxicity of the depsipeptides analogues of callipeltin B” (Bioorg Med Chem Lett, 2011)
The source made the active and inactive calls. The rule behind the calls is not given here. Positions of bridges follow the written chain, without caps; N, C: chain ends. Non-standard residues stand in square brackets, D forms with d. Residues, ends and D or L forms follow the SMILES beside them. *: point of attachment. X1 = C[C@@H](OC(C)(C)C)[C@H](NC(=O)[C@@H](NC(=O)[C@@H]1CCC(=O)N1)[C@@H](C)O*)C(=O)O; NHTrityl = c1ccc(C(N*)(c2ccccc2)c2ccccc2)cc1; Pbf = Cc1c(C)c(S(=O)(=O)*)c(C)c2c1OC(C)(C)C2; NMeQ = CN[C@@H](CCC(N)=O)C(=O)O; pGlu = O=C1CC[C@@H](C(=O)O)N1; NMeA = CN[C@@H](C)C(=O)O; Boc = CC(C)(C)OC(=O)*; tBu = CC(C)(C)*

Key:
Type in all cases: functional, cell-based
HeLa [1] = test: Cytotoxicity against human HeLa cells assessed as protease release from damaged cell after at 4-1000 uM after 24 hrs by luminometry
HeLa [2] = test: Cytotoxicity against human HeLa cells assessed as protease release from damaged cell at 4-100 uM after 24 hrs by luminometry
HeLa [3] = test: Cytotoxicity against human HeLa cells after 24 hrs by luminometry

Structure (SMILES) | Activity (HeLa [2]) | further results
Cc1c(C)c(S(=O)(=O)NC(=N)NCCC[C@H](NC(=O)[C@@H](NC(=O)[C@@H](NC(=O)[C@H](CCC(N)=O)NC(=O)OC(C)(C)C)[C@@H](C)O)[C@@H](C)OC(C)(C)C)C(=O)N[C@@H](CC(C)C)C(=O)N[C@@H](CCC(=O)NC(c2ccccc2)(c2ccccc2)c2ccccc2)C(=O)N[C@@H](Cc2ccc(OC(C)(C)C)cc2)C(=O)N[C@@H](C)C(=O)O)c(C)c2c1OC(C)(C)C2 (Boc-QTT(tBu)R(Pbf)LE(NHTrityl)Y(tBu)A-OH) | – | Activity (HeLa [1]): inactive
Cc1c(C)c(S(=O)(=O)NC(=N)NCCC[C@@H]2NC(=O)[C@H]([C@@H](C)OC(C)(C)C)NC(=O)[C@@H](NC(=O)[C@@H](N)CCC(N)=O)[C@@H](C)OC(=O)[C@H](C)NC(=O)[C@H](Cc3ccc(OC(C)(C)C)cc3)NC(=O)[C@H](CCC(=O)NC(c3ccccc3)(c3ccccc3)c3ccccc3)NC(=O)[C@H](CC(C)C)NC2=O)c(C)c2c1OC(C)(C)C2 (H-QTT(tBu)R(Pbf)LE(NHTrityl)Y(tBu)A; ester 2-C) | inactive | –
Cc1c(C)c(S(=O)(=O)NC(=N)NCCC[C@H](N)C(=O)N[C@@H](CC(C)C)C(=O)N[C@@H](CCC(=O)NC(c2ccccc2)(c2ccccc2)c2ccccc2)C(=O)N[C@@H](Cc2ccc(OC(C)(C)C)cc2)C(=O)N[C@@H](C)C(=O)O[C@H](C)[C@H](NC(=O)[C@@H]2CCC(=O)N2)C(=O)N[C@H](C(=O)O)[C@@H](C)OC(C)(C)C)c(C)c2c1OC(C)(C)C2 (H-R(Pbf)LE(NHTrityl)Y(tBu)A-X1) | – | IC50 (HeLa [3]): 2260 µM
CC(C)C[C@@H]1NC(=O)[C@H](CCCNC(=N)N)NC(=O)[C@H]([C@@H](C)O)NC(=O)[C@@H](NC(=O)[C@@H]2CCC(=O)N2)[C@@H](C)OC(=O)[C@H](C)NC(=O)[C@H](Cc2ccc(O)cc2)NC(=O)[C@H](CCC(N)=O)NC1=O ([pGlu]TTRLQYA; ester 2-C) | inactive | –
CC(C)C[C@@H]1NC(=O)[C@H](C)N(C)C(=O)[C@H]([C@@H](C)O)NC(=O)[C@@H](NC(=O)[C@@H]2CCC(=O)N2)[C@@H](C)OC(=O)[C@H](CCC(N)=O)NC(=O)[C@H](Cc2ccc(O)cc2)NC(=O)[C@H](CCCNC(=N)N)NC1=O ([pGlu]TT[NMeA]LRYQ; ester 2-C) | inactive | –
CC(C)C[C@@H]1NC(=O)[C@H](C)N(C)C(=O)[C@H]([C@@H](C)O)NC(=O)[C@@H](NC(=O)[C@@H]2CCC(=O)N2)[C@@H](C)OC(=O)[C@H](CCC(N)=O)N(C)C(=O)[C@H](Cc2ccc(O)cc2)NC(=O)[C@H](CCCNC(=N)N)NC1=O ([pGlu]TT[NMeA]LRY[NMeQ]; ester 2-C) | inactive | –
C=C(C)[C@H]1Cc2c(ccc3c2O[C@@H]2COc4cc(OC)c(OC)cc4[C@@H]2C3=O)O1 [ROTENONE] | – | IC50 (HeLa [3]): 78 µM
